{"source": "patent US20070004805A1", "about": "“Process for preparation of liquid dosage form containing sodium 4-phenylbutyrate” (Navinta LLC, priority 2005, published 2007)", "key": {"[1]": {"test": "solubility / achievable concentration of sodium 4-phenylbutyrate in water", "type": "physicochemical", "description": "In another embodiment, this invention provides a process of preparing a supersaturated solution of sodium 4-phenylbutyrate in water by adding sufficient water to a known quantity of sodium 4-phenylbutyrate at an elevated temperature of about 30° to about 80° C. to produce a concentration of about 600 mg/mL.\nAs described in more detail below, this invention describes a process of preparing a highly concentrated solution of sodium 4-phenylbutyrate, having a concentration 500 mg/mL in water by dissolving 5 g of sodium 4-phenylbutyrate in about 3.5 mL water to yield a solution volume of about 10 mL. The temperature can be room temperature (25° C.) or an elevated temperature, preferably in the range of up to about 80° C. We found it is more difficult to make this solution at room temperature, but the solution can be made at a higher temperature and then cooled to room temperature without precipitating resulting. […] Therefore, due to likely micelle formation of sodium 4-phenylbutyrate (which we term the self-associated polymeric form), the high concentration of about 500 mg/mL can be achieved in solution. […] This novel invention thus provides a dosage form better able to help the patients presently administered with a high volume dosage of sodium 4-phenylbutyrate. […]"}, "[2]": {"test": "cold storage of the highly concentrated aqueous solution (freezing / precipitation)", "type": "physicochemical", "description": "As described in more detail below, this invention describes a process of preparing a highly concentrated solution of sodium 4-phenylbutyrate, having a concentration 500 mg/mL in water by dissolving 5 g of sodium 4-phenylbutyrate in about 3.5 mL water to yield a solution volume of about 10 mL. The temperature can be room temperature (25° C.) or an elevated temperature, preferably in the range of up to about 80° C. We found it is more difficult to make this solution at room temperature, but the solution can be made at a higher temperature and then cooled to room temperature without precipitating resulting. […] Therefore, due to likely micelle formation of sodium 4-phenylbutyrate (which we term the self-associated polymeric form), the high concentration of about 500 mg/mL can be achieved in solution. […] This novel invention thus provides a dosage form better able to help the patients presently administered with a high volume dosage of sodium 4-phenylbutyrate. This invention is not intended to be limited by this discussion of micellar phases, or the presence or absence of other high concentration phases (such as sponge or L3, worm-like micelles, sheets and other laminar phases) that may be formed depending on the particular processing conditions and/or materials used. In the follow description the term “solution” is used without regard to whether a micellar phase is present.\nAbout 160 g of sodium 4-phenylbutyrate was transferred to a 250 mL volumetric flask to which was then added about 90 mL of water and agitated with heating at a temperature 70° C. to dissolve. The mixture was cooled to 25° C. and 0.5 g of sodium benzoate was added and mixed well. This solution was compounded to 250 mL with water."}}}
{"smiles": "O=C([O-])CCCc1ccccc1.[Na+]", "note": "[sodium 4-phenylbutyrate]", "values": [{"measurement": "high concentration achieved in solution", "setting": "[1]; in water, made at room temperature (25° C.) or up to about 80° C., then cooled without precipitation", "value": "about 500 mg/mL"}, {"measurement": "maximum drug concentration achieved in the formulation", "setting": "[1]; supersaturated solution in aqueous medium", "value": "about 700 mg/mL"}, {"measurement": "freezing of the solution", "setting": "[2]; 600 mg/mL solution at 0° C.", "value": "does not freeze"}, {"measurement": "freezing or precipitation upon storage", "setting": "[2]; about 500 mg/mL solution, 0° C. for two days", "value": "did not freeze or precipitate out"}, {"measurement": "precipitation on further cooling", "setting": "[2]; about 500 mg/mL solution, cooled to −4° C.", "value": "precipitation observed"}]}
